Test results from US7163928B2 (CV Therapeutics, Inc., priority 2003, dated 2007).
Values joined by “and” are separate entries in the source; they are usually repeats but may differ in a detail not shown here. Equal values may be shown once.

Biological target: T1, A1 adenosine receptor (Mesocricetus auratus, UniProt A0A1U8BVR4)
T1 construct: A1 adenosine receptor sites on the membranes of DDT cells; endogenous in cells; host or cells: DDT1 cells (hamster vas deferens smooth muscle cell line), membrane preparation
T1 sequence (A0A1U8BVR4 1-326): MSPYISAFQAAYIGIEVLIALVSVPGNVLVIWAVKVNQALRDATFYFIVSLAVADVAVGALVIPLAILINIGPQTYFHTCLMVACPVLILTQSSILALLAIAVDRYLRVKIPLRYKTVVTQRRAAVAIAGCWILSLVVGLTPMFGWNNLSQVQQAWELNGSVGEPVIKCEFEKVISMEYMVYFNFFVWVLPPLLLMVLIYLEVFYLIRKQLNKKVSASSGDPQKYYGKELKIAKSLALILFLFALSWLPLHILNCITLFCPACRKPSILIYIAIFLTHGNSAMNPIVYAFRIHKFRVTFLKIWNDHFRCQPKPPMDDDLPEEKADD
Assay: Competitive binding assay, DDT cell membranes, 3H-CPX
Set-up: species or system hamster
Conditions: 1.5 nM 3H-CPX, 10 μM GTP-γS, 23° C. 90 minutes, read-out: Ki (low)
Experimental: DDT cells (hamster vas deferens smooth muscle cell line) were grown as monolayers in petri dishes using Dulbecco's Modified Eagle's Medium (DMEM) containing 2.5 μg mL^−1 amphotericin B, 100 U mL^−1 penicillin G, 0.1 mg mL^−1 streptomycin sulfate and 5% fetal bovine serum in a humidified atmosphere of 95% air and 5% CO2. Cells were subcultured twice weekly by dispersion in Hank's Balanced Salt Solution (HBSS) without the divalent cations and containing 1 mM EDTA. The cells were then seeded in growth medium at a density of 1.2×10^5 cells per plate and experiments were performed 4 days later at approximately one day preconfluence.
Attached cells were washed twice with HBSS (2×10 mL), scraped free of the plate with the aid of a rubber policeman in 5 mL of 50 mM Tris-HCl buffer pH 7.4 at 4° C. and the suspension homogenized for 10 s. The suspension was then centrifuged at 27,000×g for 10 min. The pellet was resuspended in homogenization buffer by vortexing and centrifuged as described above. The final pellet was resuspended in 1 vol of 50 mM Tris-HCl buffer pH 7.4 containing 5 mM MgCl2 for A1 adenosine receptor assays. For the [^35S]GTPγS binding assay the final pellet was resuspended in 50 mM Tris-HCl pH 7.4 containing 5 mM MgCl2, 100 mM NaCl and 1 mM dithiothreitol. This membrane suspension was then placed in liquid nitrogen for 10 min, thawed and used for assays. The protein content was determined with a Bradford™ Assay Kit using bovine serum albumin as standard.
Compounds of Formula I were assayed to determine their affinity for the A1 adenosine receptor sites on the membranes of DDT cells. Briefly, 50–70 ug of membrane protein were incubated in a mixture containing 2 U/ml adenosine deaminase, 10 μM GTP-γS in 5 mM HE buffer containing 5 mM MgCl2 in glass tubes Stock solutions of the compounds of the invention were serially diluted (10^−10M to 10^−4M) in HE buffer or HE buffer alone (to determine total binding) and added to the incubation mixture. Finally, tritiated […] (^3H-CPX) was added to a final concentration of 1.5 nM. After incubation at 23° C. 90 minutes, the reaction was stopped by filtration on a Brandel MR24 cell harvester and washing with ice-cold Tris-EDTA buffer (three times, approximate volume 10 ml/wash) over Whatman GF/B filters (presoaked for 1 h in 0.3% polyethylenimine to reduce non-specific binding). Filters were transferred to scintillation vials and 5 ml of Scintisafe (VWR, Brisbane, Calif.) was added. The amount of radioactivity retained on the filters was determined by liquid scintillation spectrometry. Protein determinations were by the method of Bradford (1976. Anal. Biochem. 72:248) using bovine serum albumin as the standard.

Row | Ki | Molecule
1 | > 5 µM | OC[C@@H]1C[C@@H](O)[C@H](n2cnc3c(N[C@H]4CC[C@H](O)CC4)ncnc32)O1
2 | > 5 µM | 1-[(3R)-3-({9-[(5S,2R,3R)-3-hydroxy-5-(hydroxymethyl)oxolan-2-yl]purin-6-yl}amino)pyrrolidinyl]-2-methylpropan-1-one [CVT 4614]
3 | > 5 µM | 4-{[(3R)-3-({9-[(5S,2R,3R)-3-hydroxy-5-(hydroxymethyl)oxolan-2-yl]purin-6-yl}amino)pyrrolidinyl]carbonyl}benzenecarbonitrile [CVT 4608]
4 | 1 µM | OC[C@@H]1C[C@@H](O)[C@H](n2cnc3c(N[C@@H]4CCOC4)ncnc32)O1 [CVT 3454, 2-{6-[((3R)oxolan-3-yl)amino]purin-9-yl}(5S,2R,3R)-5-(hydroxymethyl)oxolan-3-ol]
5 | > 5 µM | CC(=O)N1CC[C@@H](Nc2ncnc3c2ncn3[C@@H]2O[C@H](CO)C[C@H]2O)C1 [CVT 4617, (3R)-3-({9-[(5S,2R,3R)-3-hydroxy-5-(hydroxymethyl)oxolan-2-yl]purin-6-yl}amino)-1-acetylpyrrolidine]
6 | 4.44 µM and 2.94 µM | OC[C@@H]1C[C@@H](O)[C@H](n2cnc3c(N[C@@H]4CCCCC4O)ncnc32)O1 (stereo partly drawn) [CVT 4622, 2-{6-[((1R)-2-hydroxycyclohexyl)amino]purin-9-yl}(5S,2R,3R)-5-(hydroxymethyl)oxolan-3-ol]
7 | 4.09 µM and 3.69 µM | OC[C@@H]1C[C@@H](O)[C@H](n2cnc3c(N[C@H]4CCC[C@@H]4O)ncnc32)O1 [CVT 4625, (5S,2R,3R)-2-{6-[((1S,2S)-2-hydroxycyclopentyl)amino]purin-9-yl}-5-(hydroxymethyl)oxolan-3-ol]
8 | 4.01 µM and 3.5 µM | OC[C@@H]1C[C@@H](O)[C@H](n2cnc3c(N[C@@H]4CCCC4O)nc(Cl)nc32)O1 (stereo partly drawn) [CVT 4626, 2-{6-[((1R)-2-hydroxycyclopentyl)amino]-2-chloropurin-9-yl}(5S,2R,3R)-5-(hydroxymethyl)oxolan-3-ol]
9 | > 5 µM | O=S(=O)(c1ccccc1)N1CC[C@@H](Nc2ncnc3c2ncn3[C@@H]2O[C@H](CO)C[C@H]2O)C1 [CVT 4629, (3R)-3-({9-[(5S,2R,3R)-3-hydroxy-5-(hydroxymethyl)oxolan-2-yl]purin-6-yl}amino)-1-(phenylsulfonyl)pyrrolidine]
10 | 2.84 µM | (3R)-3-({9-[(5S,2R,3R)-3-hydroxy-5-(hydroxymethyl)oxolan-2-yl]purin-6-yl}amino)pyrrolidinyl 2-fluorophenyl ketone [CVT 4606]
11 | > 5 µM | (3R)-3-({9-[(5S,2R,3R)-3-hydroxy-5-(hydroxymethyl)oxolan-2-yl]purin-6-yl}amino)pyrrolidinyl 2-naphthyl ketone [CVT 4612]
12 | > 5 µM | (3R)-3-({9-[(5S,2R,3R)-3-hydroxy-5-(hydroxymethyl)oxolan-2-yl]purin-6-yl}amino)pyrrolidinyl 3-fluorophenyl ketone [CVT 4613]
13 | > 5 µM | (3R)-3-({9-[(5S,2R,3R)-3-hydroxy-5-(hydroxymethyl)oxolan-2-yl]purin-6-yl}amino)pyrrolidinyl 4-(trifluoromethyl)phenyl ketone [CVT 4610]
14 | > 5 µM | (3R)-3-({9-[(5S,2R,3R)-3-hydroxy-5-(hydroxymethyl)oxolan-2-yl]purin-6-yl}amino)pyrrolidinyl 4-ethylphenyl ketone [CVT 4611]
15 | > 5 µM | (3R)-3-({9-[(5S,2R,3R)-3-hydroxy-5-(hydroxymethyl)oxolan-2-yl]purin-6-yl}amino)pyrrolidinyl 4-fluorophenyl ketone [CVT 4607]
16 | > 5 µM | (3R)-3-({9-[(5S,2R,3R)-3-hydroxy-5-(hydroxymethyl)oxolan-2-yl]purin-6-yl}amino)pyrrolidinyl 4-methoxyphenyl ketone [CVT 4609]
17 | 1.91 µM and 2.56 µM | (3R)-3-({9-[(5S,2R,3R)-3-hydroxy-5-(hydroxymethyl)oxolan-2-yl]purin-6-yl}amino)pyrrolidinyl naphthyl ketone [CVT 4627]

System: not given
Assay: not given
Conditions: cited from earlier work

Row | Molecule | half-life
18 | Nc1ncnc2c1ncn2[C@@H]1O[C@H](CO)[C@@H](O)[C@H]1O [adenosine, Adenosine] | less than 10 sec
